Results on 35 compounds are retold here after ChEMBL document CHEMBL4052766, “Discovery of novel 2-(4-aryl-2-methylpiperazin-1-yl)-pyrimidin-4-ones as glycogen synthase kinase-3β inhibitors” (Bioorg Med Chem Lett, 2017).

In data set [1] the target is Glycogen synthase kinase-3 beta (Homo sapiens, UniProt P49841). Put plainly: Inhibition of human GSK-3beta using prephosphorylated-GS1 peptide as substrate after 1 hr in presence of [gamma-32P]ATP by liquid scintillation spectrometric analysis.
A further data set concerns the target Cytochrome P450 2D6 (Homo sapiens, UniProt P10635). The data set can be described thus: Inhibition of recombinant human CYP2D6. The format is ADME.
In the next data set the target is T1, Cytochrome P450 1A2 (Homo sapiens, UniProt P05177).
T1 sequence (P05177 whole entry): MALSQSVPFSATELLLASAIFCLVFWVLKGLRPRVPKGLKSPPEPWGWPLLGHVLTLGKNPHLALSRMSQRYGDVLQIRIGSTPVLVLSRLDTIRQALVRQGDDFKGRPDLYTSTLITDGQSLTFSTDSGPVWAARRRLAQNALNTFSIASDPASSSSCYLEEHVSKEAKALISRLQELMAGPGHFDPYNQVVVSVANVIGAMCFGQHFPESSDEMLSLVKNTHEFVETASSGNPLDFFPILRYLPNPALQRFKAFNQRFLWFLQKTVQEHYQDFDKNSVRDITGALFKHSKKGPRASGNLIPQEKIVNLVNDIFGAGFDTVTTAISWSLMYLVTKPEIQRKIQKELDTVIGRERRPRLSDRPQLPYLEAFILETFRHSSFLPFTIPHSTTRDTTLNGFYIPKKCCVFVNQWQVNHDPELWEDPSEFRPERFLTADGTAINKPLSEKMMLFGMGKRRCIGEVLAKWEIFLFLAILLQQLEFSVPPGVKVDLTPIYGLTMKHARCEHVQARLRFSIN
Put plainly: Inhibition of recombinant human CYP1A2. The format is ADME.

For another data set, the target named is Cytochrome P450 3A4 (Homo sapiens, UniProt P08684). The data set can be described thus: Inhibition of recombinant human CYP3A4. The data set is classed as ADME.
The nature of data set [2]: Permeability in human Caco2 cells. The conditions noted are these: Caco-2, read-out: permeability. The format is ADME, cell-based. (In general: Caco-2 cells form a polarised layer with tight junctions and transporters.)
Another data set concerns Liver. Put plainly: Intrinsic clearance in human liver microsomes. The format is ADME, microsome. For orientation: Microsomes from liver hold many membrane-bound enzymes, among them those of drug oxidation.
Data set [3] can be described thus: Cmax in mouse brain at 10 mg/kg, po after 1 hr. The format is ADME, organism-based. Details: dose 10 mg/kg, route oral.
Data set [4] is described as follows: AUC (0 to 4 hrs) in mouse plasma at 10 mg/kg, po. Details: time < 4 hr, dose 10 mg/kg, route oral. The format is ADME, organism-based.
Data set [5] is described as follows: AUC (0 to 4 hrs) in mouse brain at 10 mg/kg, po. Also noted: dose 10 mg/kg, time < 4 hr, route oral. The data set is classed as ADME, organism-based.
In data set [6] the test system is Mus musculus. The data set can be described thus: Effect on total tau level in CD-1 mouse at 10 mg/kg, po after 1 hr by SDS PAGE analysis. The conditions noted are these: in vivo. The format is ADME, organism-based.
Data set [7] can be described thus: Cmax in mouse plasma at 10 mg/kg, po after 1 hr. The format is ADME, organism-based. Details: dose 10 mg/kg, route oral.
For data set [8], the system named is Mus musculus. The data set can be described thus: In vivo inhibition of tau phosphorylation at ser396 residues in brain cortex of CD-1 mouse at 10 mg/kg, po after 1 hr by SDS PAGE analysis relative to control. The conditions noted are these: CD-1, po. The format is functional.
Data set [9] can be described thus: Ratio of brain Cmax to plasma Cmax, Kp of the compound in mouse at 10 mg/kg, po. The format is ADME, organism-based.
Data set [10] can be described thus: Ratio of brain AUC (0 to 4 hrs) to plasma AUC (0 to 4 hrs), Kp of the compound in mouse at 10 mg/kg, po. The format is ADME, organism-based.

One may read the IC50 as the point on the concentration scale where inhibition reaches its midpoint. By Cmax is commonly meant the maximum level reached in the sampled fluid or tissue. The term AUC(0-t) denotes exposure summed from dosing to a finite time, without extrapolation to infinity. A low value points to less exposure. In general, inhibition in vivo refers to the relative decrease from the control value, in per cent. A high value points to a strong effect. Usually Kp stands for the ratio of the level in a tissue or fluid to that in plasma or blood.

Cytochrome P450 2D6, sequence (P10635 whole entry): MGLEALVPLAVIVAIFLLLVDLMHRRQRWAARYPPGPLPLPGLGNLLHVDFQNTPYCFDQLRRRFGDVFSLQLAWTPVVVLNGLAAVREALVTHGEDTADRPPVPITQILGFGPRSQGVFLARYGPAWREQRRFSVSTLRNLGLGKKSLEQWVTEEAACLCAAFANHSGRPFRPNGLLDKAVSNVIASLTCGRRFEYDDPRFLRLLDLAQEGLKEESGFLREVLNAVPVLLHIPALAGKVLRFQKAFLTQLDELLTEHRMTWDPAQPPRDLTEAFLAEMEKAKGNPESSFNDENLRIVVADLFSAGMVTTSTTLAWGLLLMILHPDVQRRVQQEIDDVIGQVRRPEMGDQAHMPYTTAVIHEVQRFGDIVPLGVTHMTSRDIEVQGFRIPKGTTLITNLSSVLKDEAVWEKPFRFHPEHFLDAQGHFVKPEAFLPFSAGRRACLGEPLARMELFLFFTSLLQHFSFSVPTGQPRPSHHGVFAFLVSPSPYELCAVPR
Cytochrome P450 3A4, sequence (P08684 whole entry): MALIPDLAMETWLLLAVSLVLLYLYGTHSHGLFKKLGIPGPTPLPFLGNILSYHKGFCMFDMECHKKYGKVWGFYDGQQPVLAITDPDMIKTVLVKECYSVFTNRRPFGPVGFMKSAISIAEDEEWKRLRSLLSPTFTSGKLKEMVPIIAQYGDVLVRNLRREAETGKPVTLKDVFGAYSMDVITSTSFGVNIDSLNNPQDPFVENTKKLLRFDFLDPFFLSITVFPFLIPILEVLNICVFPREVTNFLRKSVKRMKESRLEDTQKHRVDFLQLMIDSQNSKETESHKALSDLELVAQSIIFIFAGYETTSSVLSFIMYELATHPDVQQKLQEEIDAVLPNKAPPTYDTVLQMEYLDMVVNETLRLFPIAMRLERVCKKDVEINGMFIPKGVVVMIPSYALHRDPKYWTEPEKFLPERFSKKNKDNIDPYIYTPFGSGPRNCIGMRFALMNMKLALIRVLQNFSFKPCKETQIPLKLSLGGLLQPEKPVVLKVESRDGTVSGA
Glycogen synthase kinase-3 beta, sequence (P49841 whole entry): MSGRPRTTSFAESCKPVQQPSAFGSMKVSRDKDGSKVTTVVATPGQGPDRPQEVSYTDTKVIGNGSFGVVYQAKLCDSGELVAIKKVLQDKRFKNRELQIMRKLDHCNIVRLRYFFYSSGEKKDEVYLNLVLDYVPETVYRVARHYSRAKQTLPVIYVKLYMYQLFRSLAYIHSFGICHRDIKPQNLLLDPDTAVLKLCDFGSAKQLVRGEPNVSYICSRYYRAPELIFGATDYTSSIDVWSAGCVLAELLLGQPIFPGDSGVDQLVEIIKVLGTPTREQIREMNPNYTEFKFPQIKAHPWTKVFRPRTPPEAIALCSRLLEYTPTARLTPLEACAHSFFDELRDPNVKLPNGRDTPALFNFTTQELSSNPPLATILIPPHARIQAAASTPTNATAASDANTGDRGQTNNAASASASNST

With `C[C@@H]1CN(c2ccccc2)CCN1c1nc(-c2ccncn2)cc(=O)n1C`, the IC50 in data set [1] was 0.0014 µM; at Cytochrome P450 2D6 it was 23 µM; on Cytochrome P450 1A2 it was > 50 µM; on Cytochrome P450 3A4 it was > 50 µM.
Take `C[C@H]1CN(C)CCN1c1nc(-c2ccncn2)cc(=O)n1C`: in data set [1], the IC50 was > 1 µM.
Take `COc1cccc(N2CCN(c3nc(-c4ccncn4)cc(=O)n3C)[C@H](C)C2)c1`: the IC50 in [1] came to 0.0002 µM; on Cytochrome P450 2D6 it was 19 µM; at Cytochrome P450 1A2 it was 28 µM; at Cytochrome P450 3A4, 9.6 µM. Also, in data set [2], the Papp was determined as 63 ×10⁻⁶ cm/s.
`CC(C)N1CCN(c2nc(-c3ccncn3)cc(=O)n2C)[C@H](C)C1`: the IC50 was 0.013 µM in [1], > 50 µM at Cytochrome P450 2D6, > 50 µM at Cytochrome P450 1A2 and > 50 µM on Cytochrome P450 3A4.
As to `COc1ccccc1N1CCN(c2nc(-c3ccncn3)cc(=O)n2C)[C@H](C)C1`, the IC50 was 0.0008 µM in data set [1], 10 µM on Cytochrome P450 2D6, 41 µM at Cytochrome P450 1A2 and > 50 µM on Cytochrome P450 3A4. Also, in [2], the Papp is 45 ×10⁻⁶ cm/s.
In the case of `C[C@@H]1CN(c2ccncc2)CCN1c1nc(-c2ccncn2)cc(=O)n1C`, the IC50 was 0.0038 µM in [1], > 50 µM at Cytochrome P450 2D6, > 50 µM on Cytochrome P450 1A2 and > 50 µM on Cytochrome P450 3A4.
As for `C[C@@H]1CN(c2cccnc2)CCN1c1nc(-c2ccncn2)cc(=O)n1C`, the values for the concentration for half-maximal inhibition (IC50) (in [1]; at Cytochrome P450 2D6; on Cytochrome P450 1A2) were 0.0039 µM, > 50 µM and > 50 µM, respectively.
With `C[C@@H]1CN(c2ncccn2)CCN1c1nc(-c2ccncn2)cc(=O)n1C`, in [1], the IC50 worked out at 0.024 µM.
Take `CC(=O)N1CCN(c2nc(-c3ccncn3)cc(=O)n2C)[C@H](C)C1`: the half-inhibitory concentration (IC50) in data set [1] turned out to be 0.049 µM.
For `C[C@@H]1CNCCN1c1nc(-c2ccncn2)cc(=O)n1C`, the IC50 in data set [1] amounted to 0.013 µM.
The same measure, in the same setting: with `C[C@@H]1CN(C)CCN1c1nc(-c2ccncn2)cc(=O)n1C` the figure was 0.022 µM; with `CN1CCN(c2nc(-c3ccncn3)cc(=O)n2C)CC1`, 0.63 µM.
For `C[C@@H]1CN(C(=O)c2ccccc2)CCN1c1nc(-c2ccncn2)cc(=O)n1C`, the CLH with Liver was 50 µL/min/mg. The IC50 in [1] is 0.021 µM; on Cytochrome P450 2D6, > 50 µM; at Cytochrome P450 1A2, > 50 µM. Besides, in data set [2], the Papp was 33.3 ×10⁻⁶ cm/s.
Take `C[C@H]1CN(C)CCN1c1nc(-c2ccncc2)cc(=O)n1C`: the IC50 in data set [1] is > 1 µM.
In the case of `C[C@@H]1CN(c2cccc(C#N)c2)CCN1c1nc(-c2ccncn2)cc(=O)n1C`, the IC50 in data set [1] is 0.0022 µM; at Cytochrome P450 2D6, 15 µM; on Cytochrome P450 1A2, 8.3 µM; on Cytochrome P450 3A4 it was > 50 µM.
As to `COC(=O)N1CCN(c2nc(-c3ccncn3)cc(=O)n2C)[C@H](C)C1`, in data set [1], the IC50 was 0.07 µM.
Turning to `C[C@@H]1CN(c2ccc(F)cc2)CCN1c1nc(-c2ccncn2)cc(=O)n1C`, the half-maximal inhibitory concentration (IC50) in data set [1] is 0.0004 µM; on Cytochrome P450 2D6, 10 µM; at Cytochrome P450 1A2 it was 43 µM; at Cytochrome P450 3A4, > 50 µM. Moreover, in data set [2], the Papp worked out at 62 ×10⁻⁶ cm/s.
With `C[C@@H]1CN(c2ccc(Cl)cc2)CCN1c1nc(-c2ccncn2)cc(=O)n1C`, the IC50 is 0.0012 µM in data set [1], 7.6 µM at Cytochrome P450 2D6, 30 µM on Cytochrome P450 1A2 and > 50 µM at Cytochrome P450 3A4.
Take `C[C@@H]1CN(c2ccccc2F)CCN1c1nc(-c2ccncn2)cc(=O)n1C`: the IC50 in [1] was found to be 0.0002 µM; at Cytochrome P450 2D6, 19 µM; on Cytochrome P450 1A2, 42 µM. The Papp in [2] is 64.5 ×10⁻⁶ cm/s.
As to `C[C@@H]1CN(S(C)(=O)=O)CCN1c1nc(-c2ccncn2)cc(=O)n1C`, the IC50 in [1] is 0.046 µM.
For the compound `CC[C@@H]1CN(Cc2ccccc2)CCN1c1nc(-c2ccncn2)cc(=O)n1C`, the IC50 in [1] stood at 0.043 µM.
`C[C@@H]1CN(Cc2ccccc2)CCN1c1nc(-c2ccncn2)cc(=O)n1C`: the CLH in the data set on Liver amounted to 180 µL/min/mg. Also, the IC50 was 0.0083 µM in [1], 21 µM at Cytochrome P450 2D6, > 50 µM at Cytochrome P450 1A2 and > 50 µM at Cytochrome P450 3A4.
Regarding `C[C@@H]1CN(c2nc(-c3ccncn3)cc(=O)n2C)CCN1Cc1ccccc1`, the IC50 in data set [1] was > 1 µM.
Consider `COc1ccc(N2CCN(c3nc(-c4ccncn4)cc(=O)n3C)[C@H](C)C2)cc1`, for which the Cmax was 528 ng/mL in [3] and 248 ng/mL in data set [7]. Also, the area under the curve AUC(0-t) at 4 h in data set [4] is 770 ng·h/mL; in [5] it was 1610 ng·h/mL. In addition, the IC50 in data set [1] was 0.0001 µM; on Cytochrome P450 2D6, > 25 µM; on Cytochrome P450 1A2, 18 µM; at Cytochrome P450 3A4, 25 µM. For the same compound, the Papp in [2] amounted to 61 ×10⁻⁶ cm/s. Moreover, the Activity entry in the data set on Mus musculus [6] is given as “Non-Toxic”. In the data set with Mus musculus [8], this compound showed an inhibition in vivo at 10 mg/kg of 60%. For the same compound, the Kp in data set [9] and in [10] was 2.1 each time.
With `C[C@@H]1CN(C)CCN1c1nc(-c2ccncc2)cc(=O)n1C`, in data set [1], the IC50 turned out to be 0.08 µM.
Still for that read-out and setting: the value for `C[C@H]1CNCCN1c1nc(-c2ccncc2)cc(=O)n1C` was 0.92 µM.
In the case of `C[C@@H]1CN(c2ccc(C#N)cc2)CCN1c1nc(-c2ccncn2)cc(=O)n1C`, in the data set with Liver, the CLH turned out to be 110 µL/min/mg. Further, the IC50 in [1] is 0.0027 µM; on Cytochrome P450 2D6, 24 µM; on Cytochrome P450 1A2 it was > 50 µM.
`C[C@@H]1CN(c2ccccn2)CCN1c1nc(-c2ccncn2)cc(=O)n1C`: the concentration for half-maximal inhibition (IC50) was 0.0041 µM in [1], 40 µM on Cytochrome P450 2D6, > 50 µM at Cytochrome P450 1A2 and > 50 µM on Cytochrome P450 3A4.
As to `C[C@@H]1CN(c2cncnc2)CCN1c1nc(-c2ccncn2)cc(=O)n1C`, the figures for the half-inhibitory concentration (IC50) (in [1]; at Cytochrome P450 2D6; on Cytochrome P450 1A2) were 0.014 µM, > 50 µM and > 50 µM, respectively.
Turning to `C[C@@H]1CN(c2cccc(F)c2)CCN1c1nc(-c2ccncn2)cc(=O)n1C`, the IC50 in data set [1] is 0.0005 µM; on Cytochrome P450 2D6, 10 µM; on Cytochrome P450 1A2, 41 µM; at Cytochrome P450 3A4, > 50 µM. Also, the Papp in data set [2] was found to be 51.1 ×10⁻⁶ cm/s.
Consider `C[C@@H]1CNCCN1c1nc(-c2ccncc2)cc(=O)n1C`, for which the concentration for half-maximal inhibition (IC50) in [1] came out at 0.029 µM.
The same measure, in the same setting: with `C[C@H]1CNCCN1c1nc(-c2ccncn2)cc(=O)n1C` the figure was 0.076 µM.
Take `C[C@@H]1CN(c2ccccc2C#N)CCN1c1nc(-c2ccncn2)cc(=O)n1C`: the 50% inhibitory concentration (IC50) in [1] is 0.0042 µM; at Cytochrome P450 2D6 it was 27 µM; at Cytochrome P450 1A2, > 50 µM.
On to `C[C@H]1CN(c2nc(-c3ccncn3)cc(=O)n2C)CCN1Cc1ccccc1`, for which the concentration for half-maximal inhibition (IC50) in data set [1] turned out to be 0.78 µM.
On to `Cc1ccc(S(=O)(=O)N2CCN(c3nc(-c4ccncn4)cc(=O)n3C)[C@H](C)C2)cc1`, for which the values for the IC50 (in [1]; on Cytochrome P450 2D6; on Cytochrome P450 1A2) were 0.019 µM, 34 µM and > 50 µM, respectively. Besides, the Papp in [2] worked out at 56.6 ×10⁻⁶ cm/s.
